Format in all cases: cell-based
The subject of experiment [1] is Pseudomonas aeruginosa. Briefly: Enhancement of antibiotic activity on 24-h biofilm, live bacteria by plating. How it is done: (§1) The ability of grZ14s-nvCyc to enhance the activity of Imipenem or Ampicillin was performed by first incubating the wells in a 96-well plate with Pseudomonas aeruginosa for 24 hours at 37° C. and 50 rpm shaking. The plate was washed 2 times with phosphate buffer solution. The wells were then filled with either the antibiotic alone or the antibiotic with grZ14s-nvCyc (100 ng/ml). The wells were then incubated for 48 hours (24 hours for Ampicillin) at 37° C. and 50 rpm shaking. 0.3% triton X-100 and 0.45% EDTA were then added to the wells, bringing the wells to a final concentration of 0.075% triton X-100 and 0.1125% EDTA. The plates were then sonicated in a bath-sonicator for 12 minutes. The wells were then serially diluted in PBS. The solutions were then seeded on a blood plate agar and incubated at 37° C. for 24 hours.

The test system of experiment [2] is Pseudomonas aeruginosa (ATCC 27853). The experiment can be described thus: Detachment of pre-formed biofilm from a well (Examples 1-7). The note with it: 24-hour peptide incubation, different concentrations, crystal violet OD 595 nm. As for the experimental part:
A biofilm was created by incubating Pseudomonas aeruginosa (ATCC 27853) overnight in wells at 37° C., allowing the microorganism to attach to the well surface. Eqt2Z-cyc peptide [Custom Peptide Synthesis; Peptron, Korea] at different concentrations was subsequently added to the wells and allowed to incubate overnight. The P.a. control was Pseudomonas aeruginosa alone.
A biofilm was created by culturing Pseudomonas aeruginosa (ATCC 27853) for 2 hours in a well at 37° C. Eqt2Z-cyc peptide at different concentrations was subsequently added to the well and allowed to incubate overnight. The Abac10-cyc peptide served as a negative control. The P.a. control was Pseudomonas aeruginosa alone.
A biofilm was created by culturing Pseudomonas aeruginosa (ATCC 27853) for 2 hours in a well at 37° C. Eqt2Z-cyc peptide at different concentrations was subsequently added to the well and allowed to incubate for 24 hours. The Abac10-cyc peptide served as a negative control. The P.a. control was Pseudomonas aeruginosa alone. […] Staining was performed with crystal violet at OD 595 nm.
A biofilm was created by culturing Pseudomonas aeruginosa (ATCC 27853) for 2 hours in a well at 37° C. grZ14s-nvCyc peptide [Custom Peptide Synthesis; Peptron, Korea] at different concentrations was subsequently added to the well and allowed to incubate for 24 hours. The Abac10-cyc peptide served as a negative control. The P.a. control was Pseudomonas aeruginosa alone. […] Staining was performed with crystal violet at OD 595 nm.
A biofilm was created by culturing Pseudomonas aeruginosa (ATCC 27853) for 24 hours in a well at 37° C. Eqt2Z-cyc peptide at different concentrations was subsequently added to the well and allowed to incubate for 24 hours. The Abac10-cyc peptide served as a negative control. The P.a. control was Pseudomonas aeruginosa alone. […] Staining was performed with crystal violet at OD 595 nm.
A biofilm was created by culturing Pseudomonas aeruginosa (ATCC 27853) for 24 hours in a well at 37° C. grZ14s-nvCyc peptide at different concentrations was subsequently added to the well and allowed to incubate for 24 hours. The Abac10-cyc peptide served as a negative control. The P.a. control was Pseudomonas aeruginosa alone. […] Staining was performed with crystal violet at OD 595 nm.
A biofilm was created by culturing Pseudomonas aeruginosa (ATCC 27853) for 24 hours in a well at 37° C. PhyscoZ-Cyc peptide [Custom Peptide Synthesis; Peptron, Korea] at different concentrations was subsequently added to the well and allowed to incubate for 24 hours. The P.a. control was Pseudomonas aeruginosa alone. […] Staining was performed with crystal violet at OD 595 nm.

The test system of the next experiment is Staphylococcus aureus. The experiment can be described thus: Enhancement of Vancomycin activity on 24-h biofilm, live bacteria by plating. The note with it: peptide 100 ng/ml with Vancomycin vs Vancomycin alone. As for the experimental part:
as §1, with “Vancomycin” for “Imipenem or Ampicillin”, “Staphylococcus aureus” for “Pseudomonas aeruginosa”, “24” for “48”, “hours” for “hours (24 hours for Ampicillin)”

For a further experiment, the system named is Candida albicans. The experiment can be described thus: Enhancement of antifungal activity, BacTiter-Glo viability. The note with it: 24 hours. As for the experimental part: (§2) The ability of grZ14s-nvCyc to enhance the activity of Amphotericin was performed by first incubating the wells in a 96-well plate with Candida albicans for 24 hours at 37° C. and 50 rpm shaking. The plate was washed 2 times with phosphate buffer solution. The wells were then filled with either the antifungal alone or the antifungal with grZ14s-nvCyc (100 ng/ml). The wells were then incubated for 24 hours at 37° C. and 50 rpm shaking. The plates were again washed 2 times with PBS. BacTiter-Glo Microbial Cell Viability Assay (Promega, USA) was used following the manufacturer protocol and luminescence read.
as §2, with “Fluconazole” for “Amphotericin”

In experiment [3] the test system is Pseudomonas aeruginosa. Briefly: Enhancement of Kanamycin activity, BacTiter-Glo viability. To be noted: peptide 100 ng/ml with Kanamycin vs Kanamycin alone, 24 hours. How it is done:
as §2, with “Kanamycin” for “Amphotericin”, “Pseudomonas aeruginosa” for “Candida albicans”, “Kanamycin” for “the antifungal”

Turning to CSVHSFDYDWYNVC [grZ14s-nvCyc], the “number of live bacteria” value is given as “much lower” in the experiment with Pseudomonas aeruginosa [1] (peptide 100 ng/ml with Ampicillin vs Ampicillin alone, 24 hours); “much lower” with Pseudomonas aeruginosa [1] (peptide 100 ng/ml with Imipenem vs Imipenem alone, 48 hours); “much lower” in the experiment on Staphylococcus aureus; “much lower” in the experiment with Pseudomonas aeruginosa [3]. Also, the microorganism detachment result in experiment [2] (2-hour biofilm) and in experiment [2] (24-hour biofilm) was “far greater microorganism detachment than in the P.a. control or negative control” in each case. Moreover, the “number of live fungus” value with Candida albicans (peptide 100 ng/ml with Amphotericin vs Amphotericin alone) and in the experiment with Candida albicans (peptide 100 ng/ml with Fluconazole vs Fluconazole alone) was “much lower” each time.

Source of the values: patent US9700058B2, “Dispersion and detachment of cell aggregates” (priority 2011, dated 2017).
